In publication PMC8664950, “Potent but transient immunosuppression of T-cells is a general feature of CD71^+ erythroid cells” (Communications Biology, 2021):

Tests used:
ARG1 = target: T1, ARG1 (Homo sapiens, UniProt P05089); experiment: colorimetric urea-production arginase assay with recombinant enzyme; format: biochemical
T1 construct: recombinant human ARG1 (E. coli)
T1 sequence (P05089 1-322): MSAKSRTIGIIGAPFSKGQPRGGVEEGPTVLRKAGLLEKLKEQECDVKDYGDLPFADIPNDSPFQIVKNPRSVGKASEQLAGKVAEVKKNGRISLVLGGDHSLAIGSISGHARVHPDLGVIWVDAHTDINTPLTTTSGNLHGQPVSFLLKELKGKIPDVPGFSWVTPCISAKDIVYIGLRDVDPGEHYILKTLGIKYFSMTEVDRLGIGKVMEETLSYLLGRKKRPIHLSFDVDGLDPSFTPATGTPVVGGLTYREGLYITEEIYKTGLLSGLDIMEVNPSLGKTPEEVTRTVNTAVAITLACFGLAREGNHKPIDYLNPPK

ARG2 = target: T2, ARG2 (Homo sapiens, UniProt P78540); experiment: as above; format: biochemical
T2 construct: recombinant human ARG2 (E. coli)
T2 sequence (P78540 23-354): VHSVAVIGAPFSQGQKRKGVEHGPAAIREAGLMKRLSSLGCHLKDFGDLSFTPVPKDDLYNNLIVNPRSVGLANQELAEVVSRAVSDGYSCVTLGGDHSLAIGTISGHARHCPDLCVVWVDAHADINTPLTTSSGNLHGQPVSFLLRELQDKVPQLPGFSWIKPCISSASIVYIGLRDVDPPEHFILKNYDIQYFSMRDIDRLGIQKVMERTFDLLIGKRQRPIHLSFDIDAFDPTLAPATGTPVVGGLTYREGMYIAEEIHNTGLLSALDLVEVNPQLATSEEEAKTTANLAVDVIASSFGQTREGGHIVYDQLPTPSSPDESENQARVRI

Compound `NNc1ccccc1` [PHZ, phenylhydrazine] has an IC50 (ARG1) of 1020 µM and an IC50 (ARG2) of 61 µM.
